Source: US20070003672A1, “Tri-part calcium fortified compositions and methods of making the same” (priority 2005, published 2007)
Where “and” joins values, the source holds several entries; their conditions need not be identical. Identical values can stand only once.

Assay: Physical/chemical attributes (calcium, pH, titratable acidity, Brix, Brix/Acid ratio) of calcium fortified orange juice
Assay type: physicochemical
Set-up: unit not given here
Settings: orange juice fortified at 450 mg/100 mL calcium load
Source text: The flavor of orange juice, for example, can be characterized by a unique balance of sweetness resulting from the sugar content and tartness resulting from the acid content. A challenge of fortifying orange juice with nutritionally significant amounts of calcium is maintaining the sweet to tart balance. This balance can be expressed analytically as the Brix to acid ratio, as described above. The Brix component of the ratio is the measure of soluble solids in the beverage often determined by a refractometer. The acid component can be determined by titration with a base such as sodium hydroxide. The Brix to acid ratio is an analytical representation or measure of the sweet to tart taste balance.
A variety of calcium salts, i.e., the calcium components, were evaluated to determine their effects on the Brix-acid ratio. In this evaluation, orange juices fortified with different calcium salts were prepared at 450 mg/100 mL of calcium load. […]
Orange juices fortified with various combinations of calcium salts, i.e. calcium components, were evaluated based on physical/chemical attributes compared to unfortified orange juice.

Molecule | Calcium - Juice (48 Hours)
O.O.O.O=C([O-])/C=C/C(=O)[O-].[Ca+2] [calcium fumarate trihydrate] | 202
O=P([O-])([O-])[O-].O=P([O-])([O-])[O-].[Ca+2].[Ca+2].[Ca+2] [tricalcium phosphate] | 182
O=C([O-])[O-].[Ca+2] [calcium carbonate] | 200
O=C([O-])CC(O)C(=O)[O-].[Ca+2] (stereo not shown) [calcium malate] | 213
O=C([O-])CC(O)(CC(=O)[O-])C(=O)[O-].O=C([O-])CC(O)(CC(=O)[O-])C(=O)[O-].[Ca+2].[Ca+2].[Ca+2] [tri-calcium citrate] | 177
calcium ascorbate dihydrate | 195
O=P([O-])([O-])O.[Ca+2] [dicalcium phosphate anhydrous] | 203
O=C[O-].O=C[O-].[Ca+2] [calcium formate] | 206
O.O=C([O-])CCC(=O)[O-].[Ca+2] [calcium succinate monohydrate] | 206
O.O.O=C([O-])[C@H](O)[C@@H](O)C(=O)[O-].[Ca+2] [calcium L-tartrate dihydrate] | 140
N[C@@H](CCC(=O)[O-])C(=O)[O-].O.O.O.O.[Ca+2] [calcium L-glutamate tetrahydrate] | 207
CC(O)C(=O)[O-].CC(O)C(=O)[O-].O.O.O.O.O.[Ca+2] (stereo not shown) [calcium lactate pentahydrate] | 204
calcium gluconate monohydrate | 198
O.O.O=P([O-])([O-])O.[Ca+2] [dicalcium phosphate dihydrate] | 181
O.O.[Ca+2].[Cl-].[Cl-] [calcium chloride dihydrate] | 206
O=P([O-])([O-])[O-].O=P([O-])([O-])[O-].[Ca+2].[Ca+2].[Ca+2] [tricalcium phosphate (fine), tricalcium phosphate] | 197
O.O=P([O-])([O-])OCC(O)CO.[Ca+2] (stereo not shown) [calcium glycerophosphate monohydrate] | 187
O.O=P([O-])(O)O.O=P([O-])(O)O.[Ca+2] [monocalcium phosphate monohydrate] | 207

Same assay, conditions: orange juice fortified at 450 mg/100 mL calcium load, citrate

Molecule | Calcium - Juice (48 Hours)
CC(O)C(=O)O.O=C(O)[C@H](O)[C@@H](O)[C@H](O)[C@H](O)CO.O=C([O-])CC(O)(CC(=O)[O-])C(=O)O.[Ca+2] [calcium lactate gluconate citrate] | 200 and 202
